≈ marks a conversion by molar mass, not a printed value.
How the values were obtained:
EA.hy 926 = experiment: Cytotoxic activity, MTT colorimetric cell growth assay; format: cell-based; conditions: Homo sapiens; EA.hy 926 cells, 72 h cultivation with agent, 37° C.; read-out: Cell line and cyctotoxic acivity IC50, EA.hy 926
Method: (§1) Experiments were performed in microtiter plates (2×10^4 cells/cm^2) at 37° C. After a precultivation period of 24 h the antineoplastic agent was added and cultivation was continued for 72 h. Cell growth was determined by a colorimetric assay based on the conversion of 3-(4,5-dimethyl-2-thiazolyl)-2,5-diphenyltetrazolium (MMT) to a blue formazan product using live mitochondria according to Mosmann, J. Immunolog. Methods 1983, 65, 55.

MHEC 5T = experiment: as above; format: cell-based; conditions: MHEC5-T; MHEC 5T cells, 72 h cultivation with agent, 37° C.; read-out: Cell line and cyctotoxic acivity IC50, MHEC 5T
Method: as §1

With `O=c1[nH]c(=O)n(COCCCCCCCCCCCCO)cc1F` [Compound 3b, 5-Fluoro-1-((12′-hydroxydodecyloxy)-methyl)-uracil] the IC50 (EA.hy 926) was 45 µg/mL (≈ 131 µM) and the IC50 (MHEC 5T) was 14 µg/mL (≈ 40.6 µM).

From US20040266747A1, “Long chain fatty alcohol substituents in antineoplastic agents” (priority 2001, published 2004)
